Data published in ChEMBL document CHEMBL1150213, “Protein-tyrosine kinase inhibition: mechanism-based discovery of antitumor agents” (J Nat Prod, 1992).
Values after ≈ are worked out from the molar mass of the structure shown.

Legend:
[1] = test system: SNB-78; assay: Cytotoxicity against human SNB78 cells; type: functional
[2] = test system: SK-MEL-5; assay: Cytotoxicity against human SK-MEL-5 cells; type: functional
[3] = test system: NCI-H23; assay: cells; conditions: Homo sapiens
Description: Cytotoxicity against human NCI-H23 cells

[4] = test system: DMS-273; assay: Cytotoxicity against human DMS273 cells; type: functional
[5] = target: Tyrosine-protein kinase Lck (Homo sapiens, UniProt P06239)
Tyrosine-protein kinase Lck, sequence (P06239 whole entry): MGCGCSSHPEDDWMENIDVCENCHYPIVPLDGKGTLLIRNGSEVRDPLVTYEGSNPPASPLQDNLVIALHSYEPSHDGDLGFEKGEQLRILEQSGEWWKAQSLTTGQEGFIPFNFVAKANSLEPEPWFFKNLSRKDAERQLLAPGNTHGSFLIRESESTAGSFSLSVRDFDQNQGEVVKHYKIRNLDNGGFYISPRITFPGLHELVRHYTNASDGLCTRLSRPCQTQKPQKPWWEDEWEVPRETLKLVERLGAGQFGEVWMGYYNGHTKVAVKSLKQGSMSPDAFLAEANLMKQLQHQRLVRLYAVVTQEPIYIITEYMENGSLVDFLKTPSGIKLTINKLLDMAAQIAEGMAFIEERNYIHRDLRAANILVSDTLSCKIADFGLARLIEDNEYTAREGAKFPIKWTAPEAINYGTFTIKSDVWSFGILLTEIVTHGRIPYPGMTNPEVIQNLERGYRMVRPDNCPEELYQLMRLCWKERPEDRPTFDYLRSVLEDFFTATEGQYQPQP

[6] = test system: SK-MEL-2; assay: Cytotoxicity against human SK-MEL-2 cells; type: functional
[7] = test system: A549; assay: Cytotoxicity against human A549 cells; type: functional
[8] = test system: XF498; assay: Cytotoxicity against human XF498 cells; type: functional
[9] = test system: RPMI-8226; assay: Cytotoxicity against human RPMI8226 cells; type: functional, cell-based
[10] = test system: MOLT-4; assay: Cytotoxicity against human MOLT4 cells; type: functional, cell-based
[11] = Cytotoxicity against human 786-O cells; type: functional
[12] = test system: NCI-H322M; assay: Cytotoxicity against human NCI-H322M cells; type: functional
[13] = test system: U-251; assay: Cytotoxicity against human U251 cells; type: functional
[14] = test system: SK-MEL-28; assay: Cytotoxicity against human SK-MEL-28 cells; type: functional
[15] = test system: KM12; assay: Cytotoxicity against human KM12 cells; type: functional
[16] = test system: HT-29; assay: Cytotoxicity against human HT-29 cells; type: functional
[17] = test system: HCT-116; assay: Cytotoxicity against human HCT116 cells; type: functional
[18] = test system: TK-10; assay: Cytotoxicity against human TK10 cells; type: functional
[19] = test system: OVCAR-5; assay: Cytotoxicity against human OVCAR5 cells; type: functional
[20] = test system: OVCAR-4; assay: Cytotoxicity against human OVCAR4 cells; type: functional
[21] = test system: KM-20L2; assay: Cytotoxicity against human KM20L2 cells; type: functional
[22] = test system: SF-295; assay: Cytotoxicity against human SF295 cells; type: functional
[23] = test system: HOP-18; assay: Cytotoxicity against human HOP18 cells; type: functional
[24] = Cytotoxicity against human LXFL 529L cells; type: functional
[25] = test system: SF-268; assay: Cytotoxicity against human SF268 cells; type: functional
[26] = test system: CCRF-CEM; assay: Cytotoxicity against human CCRF-CEM cells; type: functional, cell-based
[27] = test system: SK-OV-3; assay: Cytotoxicity against human SKOV3 cells; type: functional
[28] = test system: NCI-H226; assay: Cytotoxicity against human NCI-H226 cells; type: functional
[29] = test system: HOP-92; assay: Cytotoxicity against human HOP92 cells; type: functional
[30] = test system: SN12C; assay: Cytotoxicity against human SN12C cells; type: functional
[31] = test system: Malme-3M; assay: Cytotoxicity against human MALME-3M cells; type: functional
[32] = test system: HCT-15; assay: Cytotoxicity against human HCT15 cells; type: functional
[33] = test system: DMS-114; assay: Cytotoxicity against human DMS114 cells; type: functional
[34] = test system: M14; assay: Cytotoxicity against human M14 cells; type: functional
[35] = test system: SNB-19; assay: Cytotoxicity against human SNB19 cells; type: functional
[36] = test system: SNB-75; assay: Cytotoxicity against human SNB75 cells; type: functional
[37] = test system: ACHN; assay: Cytotoxicity against human ACHN cells; type: functional
[38] = test system: CAKI-1; assay: Cytotoxicity against human Caki1 cells; type: functional
[39] = test system: DLD-1; assay: Cytotoxicity against human DLD1 cells; type: functional
[40] = test system: A498; assay: Cytotoxicity against human A498 cells; type: functional
[41] = test system: COLO 205; assay: Cytotoxicity against human COLO205 cells; type: functional
[42] = test system: NCI-H522; assay: Cytotoxicity against human NCI-H522 cells; type: functional
[43] = test system: UACC-257; assay: Cytotoxicity against human UACC257 cells; type: functional
[44] = test system: LOX IMVI; assay: Cytotoxicity against human LOXIMVI cells; type: functional
[45] = test system: SW-620; assay: Cytotoxicity against human SW620 cells; type: functional
[46] = Cytotoxicity against human RXF631 cells; type: functional
[47] = test system: HOP-62; assay: Cytotoxicity against human HOP62 cells; type: functional
[48] = test system: HCC 2998; assay: Cytotoxicity against human HCC2998 cells; type: functional
[49] = test system: NCI-H460; assay: Cytotoxicity against human NCI-H460 cells; type: functional
[50] = test system: SR; assay: Cytotoxicity against human SR cells; type: functional, cell-based
[51] = test system: RXF 393; assay: Cytotoxicity against human RXF393 cells; type: functional
[52] = test system: HL-60(TB); assay: Cytotoxicity against human HL-60(TB) cells; type: functional, cell-based
[53] = Inhibition of p40 tyrosine kinase
[54] = test system: L1210; assay: Iv vivo cytotoxicity against mouse L1210 cells relative to control in presence of foroxymithine; type: functional
[55] = test system: L1210; assay: Cytotoxicity against mouse L1210 cells; type: functional
[56] = Cytotoxicity against Rous sarcoma virus-infected rat kidney cells; type: functional
[57] = test system: A-431; assay: Cytotoxicity against human A431 cells; type: functional
[58] = target: Epidermal growth factor receptor (Homo sapiens, UniProt P00533)
Epidermal growth factor receptor, sequence (P00533 whole entry): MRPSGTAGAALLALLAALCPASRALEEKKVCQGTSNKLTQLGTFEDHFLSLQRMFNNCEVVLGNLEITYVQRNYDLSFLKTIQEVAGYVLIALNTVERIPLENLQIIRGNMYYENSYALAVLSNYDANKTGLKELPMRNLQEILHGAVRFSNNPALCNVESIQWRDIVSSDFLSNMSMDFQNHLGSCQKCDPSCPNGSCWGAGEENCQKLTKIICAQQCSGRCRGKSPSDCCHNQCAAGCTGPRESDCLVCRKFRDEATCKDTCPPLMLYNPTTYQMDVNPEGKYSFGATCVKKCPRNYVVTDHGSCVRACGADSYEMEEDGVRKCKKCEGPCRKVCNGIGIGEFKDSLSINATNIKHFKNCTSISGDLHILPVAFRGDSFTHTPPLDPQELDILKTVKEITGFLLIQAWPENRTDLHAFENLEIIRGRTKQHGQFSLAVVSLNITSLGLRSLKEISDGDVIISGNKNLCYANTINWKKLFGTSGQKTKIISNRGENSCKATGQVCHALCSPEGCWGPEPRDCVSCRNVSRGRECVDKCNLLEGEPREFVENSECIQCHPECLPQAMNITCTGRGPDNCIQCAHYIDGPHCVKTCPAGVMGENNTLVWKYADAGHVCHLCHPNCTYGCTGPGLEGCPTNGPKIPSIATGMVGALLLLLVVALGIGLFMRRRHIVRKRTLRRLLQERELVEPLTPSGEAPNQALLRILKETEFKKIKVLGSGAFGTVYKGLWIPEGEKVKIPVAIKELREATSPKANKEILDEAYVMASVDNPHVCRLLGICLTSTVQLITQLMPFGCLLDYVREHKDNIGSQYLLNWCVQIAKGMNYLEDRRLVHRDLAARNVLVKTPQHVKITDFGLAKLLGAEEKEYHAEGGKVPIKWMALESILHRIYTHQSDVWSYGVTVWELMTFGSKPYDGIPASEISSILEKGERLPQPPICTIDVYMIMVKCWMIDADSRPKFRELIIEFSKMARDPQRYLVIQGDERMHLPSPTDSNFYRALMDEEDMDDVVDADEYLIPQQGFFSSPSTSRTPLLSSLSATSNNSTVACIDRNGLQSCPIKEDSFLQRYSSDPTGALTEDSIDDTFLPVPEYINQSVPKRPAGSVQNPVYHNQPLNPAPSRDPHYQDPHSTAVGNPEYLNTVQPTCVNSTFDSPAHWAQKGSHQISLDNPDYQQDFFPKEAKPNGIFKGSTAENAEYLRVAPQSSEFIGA

[59] = target: Proto-oncogene tyrosine-protein kinase Src (Homo sapiens, UniProt P12931)
Proto-oncogene tyrosine-protein kinase Src, sequence (P12931 2-536 limits assumed): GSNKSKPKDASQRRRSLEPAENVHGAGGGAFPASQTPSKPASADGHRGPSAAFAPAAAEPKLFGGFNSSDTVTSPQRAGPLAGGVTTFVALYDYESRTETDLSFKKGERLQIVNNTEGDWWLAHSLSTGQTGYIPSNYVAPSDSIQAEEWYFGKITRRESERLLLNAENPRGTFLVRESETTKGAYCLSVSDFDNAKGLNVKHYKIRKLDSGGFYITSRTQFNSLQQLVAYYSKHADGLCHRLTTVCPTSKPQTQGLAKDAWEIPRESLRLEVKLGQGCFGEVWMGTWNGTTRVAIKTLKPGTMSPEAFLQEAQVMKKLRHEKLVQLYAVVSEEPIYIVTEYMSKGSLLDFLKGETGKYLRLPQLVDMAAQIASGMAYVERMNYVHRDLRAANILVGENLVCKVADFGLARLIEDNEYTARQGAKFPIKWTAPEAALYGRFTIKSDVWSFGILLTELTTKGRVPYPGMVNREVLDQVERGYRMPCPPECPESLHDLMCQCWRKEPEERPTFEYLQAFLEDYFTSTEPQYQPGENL
Description: Inhibition of p60c-src expressed in chick embryo fibroblast

[60] = read-out: Log10GI50 (converted)
[61] = read-out: Log10LC50 (converted)

Cc1cc(O)c2c(c1)C(=O)c1cc(O)cc(O)c1C2=O [EMODIN]
GI50 [1, 60]: 49 µM
CC50 [1, 61]: 100 µM
GI50 [2, 60]: 2630 nM
CC50 [2, 61]: 51.3 µM
GI50 ([3]; NCI-H23, read-out: Log10GI50 (converted)): 14.5 µM
CC50 ([3]; NCI-H23, read-out: Log10LC50 (converted)): > 100 µM
GI50 [4, 60]: 20 µM
CC50 [4, 61]: > 100 µM
IC50 [5]: 18.5 µM
GI50 [6, 60]: 20.4 µM
CC50 [6, 61]: > 100 µM
GI50 [7, 60]: 26.9 µM
CC50 [7, 61]: > 100 µM
GI50 [8, 60]: 26.3 µM
CC50 [8, 61]: > 100 µM
GI50 [9, 60]: 24.5 µM
CC50 [9, 61]: > 100 µM
GI50 [10, 60]: 32.4 µM
CC50 [10, 61]: > 100 µM
GI50 ([11]; 786-0, read-out: Log10GI50 (converted)): 17.4 µM
CC50 ([11]; 786-0, read-out: Log10LC50 (converted)): > 100 µM
GI50 [12, 60]: 35.5 µM
CC50 [12, 61]: > 100 µM
GI50 [13, 60]: 27.5 µM
CC50 [13, 61]: > 100 µM
GI50 [14, 60]: 36.3 µM
CC50 [14, 61]: > 100 µM
GI50 [15, 60]: 26.3 µM
CC50 [15, 61]: > 100 µM
GI50 [16, 60]: 31.6 µM
CC50 [16, 61]: > 100 µM
GI50 [17, 60]: 36.3 µM
CC50 [17, 61]: > 100 µM
GI50 [18, 60]: 23.4 µM
CC50 [18, 61]: 97.7 µM
GI50 [19, 60]: 38 µM
CC50 [19, 61]: > 100 µM
GI50 [20, 60]: 30.2 µM
CC50 [20, 61]: > 100 µM
GI50 [21, 60]: 40.7 µM
CC50 [21, 61]: > 100 µM
GI50 [22, 60]: 28.2 µM
CC50 [22, 61]: > 100 µM
GI50 [23, 60]: 3.98 µM
CC50 [23, 61]: > 100 µM
GI50 [24, 60]: 24.5 µM
CC50 [24, 61]: > 100 µM
GI50 [25, 60]: 25.7 µM
CC50 [25, 61]: > 100 µM
GI50 [26, 60]: 38 µM
CC50 [26, 61]: > 100 µM
GI50 [27, 60]: 23.4 µM
CC50 [27, 61]: > 100 µM
GI50 [28, 60]: 33.1 µM
CC50 [28, 61]: > 100 µM
GI50 [29, 60]: 11.5 µM
CC50 [29, 61]: > 100 µM
GI50 [30, 60]: 67.6 µM
CC50 [30, 61]: > 100 µM
GI50 [31, 60]: 11.7 µM
CC50 [31, 61]: > 100 µM
GI50 [32, 60]: 26.9 µM
CC50 [32, 61]: > 100 µM
GI50 [33, 60]: 40.7 µM
CC50 [33, 61]: > 100 µM
GI50 [34, 60]: 25.1 µM
CC50 [34, 61]: > 100 µM
GI50 [35, 60]: 30.2 µM
CC50 [35, 61]: > 100 µM
GI50 [36, 60]: 25.7 µM
CC50 [36, 61]: > 100 µM
GI50 [37, 60]: 19.1 µM
CC50 [37, 61]: > 100 µM
GI50 [38, 60]: 45.7 µM
CC50 [38, 61]: > 100 µM
GI50 [39, 60]: 23.4 µM
CC50 [39, 61]: > 100 µM
GI50 [40, 60]: 16.6 µM
CC50 [40, 61]: > 100 µM
GI50 [41, 60]: 17.8 µM
CC50 [41, 61]: 100 µM
GI50 [42, 60]: 14.5 µM
CC50 [42, 61]: > 100 µM
GI50 [43, 60]: 28.2 µM
CC50 [43, 61]: > 100 µM
GI50 [44, 60]: 17 µM
CC50 [44, 61]: > 100 µM
GI50 [45, 60]: 23.4 µM
CC50 [45, 61]: > 100 µM
GI50 ([46]; RXF 631, read-out: Log10GI50 (converted)): 22.4 µM
CC50 ([46]; RXF 631, read-out: Log10LC50 (converted)): > 100 µM
GI50 [47, 60]: 8.13 µM
CC50 [47, 61]: > 100 µM
GI50 [48, 60]: 32.4 µM
CC50 [48, 61]: > 100 µM
GI50 [49, 60]: 20 µM
CC50 [49, 61]: > 100 µM
GI50 [50, 60]: 23.4 µM
CC50 [50, 61]: > 100 µM
GI50 [51, 60]: 38.9 µM
CC50 [51, 61]: > 100 µM
GI50 [52, 60]: 26.9 µM
CC50 [52, 61]: > 100 µM

O=C1c2c(O)cc(O)cc2O[C@H](c2ccc(O)c(O)c2)[C@H]1O [(+)-TAXIFOLIN]
IC50 [53]: 3 ×10² ug/ml

O=CN/C=C/c1cc(O)ccc1O [ERBSTATIN]
T/C [54]: 155%
GI50 [55]: 3 µg/mL (≈ 16.7 µM)
GI50 [56]: 3 µg/mL (≈ 16.7 µM)
GI50 [57]: 3 µg/mL (≈ 16.7 µM)
IC50 [58]: 3.07 µM

Cc1ccc([C@@H]2CC(=O)c3c(O)cc(O)cc3O2)cc1
IC50 [53]: 3 ×10¹ ug/ml

Nc1ncnc2c1ncn2[C@@H]1O[C@H](COP(=O)(O)O)[C@@H](O)[C@H]1O [ADENOSINE PHOSPHATE]
IC50 [59]: 0.1 µM

Nc1ncnc2c1ncn2[C@@H]1O[C@H](COP(=O)(O)OP(=O)(O)OP(=O)(O)OP(=O)(O)OC[C@H]2O[C@@H](n3cnc4c(N)ncnc43)[C@H](O)[C@@H]2O)[C@@H](O)[C@H]1O [DIADENOSINE TETRAPHOSPHATE]
IC50 [59]: 46 µM
